Structures can show the parent of a compound that is named as a salt.

T1 sequence (Q9Y233 whole entry): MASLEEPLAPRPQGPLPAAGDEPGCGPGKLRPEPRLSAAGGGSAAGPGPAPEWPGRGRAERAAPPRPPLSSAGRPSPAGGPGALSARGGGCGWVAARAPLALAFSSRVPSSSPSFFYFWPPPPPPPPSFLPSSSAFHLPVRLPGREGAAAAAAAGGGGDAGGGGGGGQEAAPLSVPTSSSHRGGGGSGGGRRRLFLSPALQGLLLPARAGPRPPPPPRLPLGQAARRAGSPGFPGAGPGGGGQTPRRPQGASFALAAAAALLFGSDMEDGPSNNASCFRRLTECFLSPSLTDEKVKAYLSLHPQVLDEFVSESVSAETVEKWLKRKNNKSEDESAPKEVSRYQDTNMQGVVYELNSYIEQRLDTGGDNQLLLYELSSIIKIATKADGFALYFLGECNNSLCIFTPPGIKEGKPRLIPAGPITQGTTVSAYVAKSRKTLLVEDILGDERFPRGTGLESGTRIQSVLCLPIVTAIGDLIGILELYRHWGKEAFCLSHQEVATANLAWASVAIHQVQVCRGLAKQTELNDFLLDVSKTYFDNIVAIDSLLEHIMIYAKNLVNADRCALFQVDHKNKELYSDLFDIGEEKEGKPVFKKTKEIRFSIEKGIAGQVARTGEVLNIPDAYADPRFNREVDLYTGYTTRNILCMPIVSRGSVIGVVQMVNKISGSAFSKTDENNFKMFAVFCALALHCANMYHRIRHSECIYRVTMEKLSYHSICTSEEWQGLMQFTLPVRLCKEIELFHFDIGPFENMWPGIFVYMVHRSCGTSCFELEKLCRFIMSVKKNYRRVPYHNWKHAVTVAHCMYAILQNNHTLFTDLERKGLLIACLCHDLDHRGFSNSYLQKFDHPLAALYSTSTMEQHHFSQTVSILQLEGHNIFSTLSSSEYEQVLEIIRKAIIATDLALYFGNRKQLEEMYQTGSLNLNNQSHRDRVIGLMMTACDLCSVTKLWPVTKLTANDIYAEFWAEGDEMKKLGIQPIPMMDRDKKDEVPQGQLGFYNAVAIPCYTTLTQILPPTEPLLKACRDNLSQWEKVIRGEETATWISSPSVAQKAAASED

The first series concerns the target T1, PDE10A (human) (Homo sapiens, UniProt Q9Y233).
T1 construct: purchased BPS Bioscience
In words: Measurement of PDE activity (HTRF cAMP kit), human PDE10A. Format: biochemical. The settings on record: PDE enzymatic reaction, substrate 20 nM for PDE10, 60 minutes at 29 C. Summed up: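 Recombinant human PDE10A (10–250 pM range across PDEs) with 20 nM cAMP substrate in 20 mM Tris-HCl pH 7.5, 10 mM MgCl2, 0.1% BSA, compound pre-mixed with enzyme. Ran 60 min at 29 °C. Remaining cAMP read by HTRF, converted to % of uninhibited activity, and IC50 fitted.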
Background: Time-resolved FRET reads energy transfer from a long-lived donor to a nearby acceptor.
The term IC50 denotes the concentration that inhibits the measured activity by half. Higher therefore signals a need for much substance. For `O=C1c2c(cccc2-c2ccncc2)CN1CCc1cccc(-c2ncccn2)c1` [Example 121, 7-(Pyridin-4-yl)-2-(3-(pyrimidin-2-yl)phenethyl)isoindolin-1-one], the IC50 lay within 200 to 500 nM.

Turning to `O=C1c2c(cccc2N2CCSCC2)CN1CCc1ccc2ccccc2n1` [Example 150, 2-(2-Quinolin-2-yl-ethyl)-7-thiomorpholin-4-yl-2,3-dihydro-isoindol-1-one], the IC50 was < 100 nM.

As to `O=C1c2c(-c3cncnc3)ccc(F)c2CN1CCc1ccc2ccccc2n1` [compound 443, 4-Fluoro-7-pyrimidin-5-yl-2-[2-(2-quinolyl)ethyl]isoindolin-1-one trifluoroacetate], the IC50 is < 100 nM.

Regarding `O=C1c2c(cccc2-c2cncc(F)c2)CN1CCc1ccc2ccccc2n1` [Example 77, 7-(5-Fluoro-pyridin-3-yl)-2-(2-quinolin-2-yl-ethyl)-2,3-dihydro-isoindol-1-one], the IC50 was < 100 nM.

The compound `COc1ccc(-c2cccc3c2C(=O)N(CCc2ccc4ccccc4n2)C3)cc1F` [Example 32, 7-(3-Fluoro-4-methoxy-phenyl)-2-(2-quinolin-2-yl-ethyl)-2,3-dihydro-isoindol-1-one] returned an IC50 of 200 to 500 nM.

Regarding `O=C1c2cccc(-c3cncnc3)c2CN1CCc1ccc2ccccc2n1` [Example 208, 4-Pyrimidin-5-yl-2-(2-quinolin-2-yl-ethyl)-2,3-dihydro-isoindol-1-one], the IC50 was < 100 nM.

In the case of `O=C1c2c(cccc2-c2ccc3c(c2)OCO3)CN1CCc1ccc2ccccc2n1` [Example 34, 7-Benzo[1,3]dioxol-5-yl-2-(2-quinolin-2-yl-ethyl)-2,3-dihydro-isoindol-1-one], the IC50 was 100 to 200 nM.

Regarding `O=C1c2c(cccc2NCc2cccnc2)CN1CCc1ccc2ccccc2n1` [Example 126, 7-[(Pyridin-3-ylmethyl)-amino]-2-(2-quinolin-2-yl-ethyl)-2,3-dihydro-isoindol-1-one], the IC50 lay within 200 to 500 nM.

`CN1CCC(N2CCN(c3cccc4c3C(=O)N(CCc3ccc5ccccc5n3)C4)CC2)CC1` [Example 105, 7-[4-(1-Methyl-piperidin-4-yl)-piperazin-1-yl]-2-(2-quinolin-2-yl-ethyl)-2,3-dihydro-isoindol-1-one] gave an IC50 of 200 to 500 nM.

In the case of `O=C1c2c(cccc2-c2ccc3ncccc3c2)CN1CCc1ccc2ccccc2n1` [Example 75, 7-Quinolin-6-yl-2-(2-quinolin-2-yl-ethyl)-2,3-dihydro-isoindol-1-one], the IC50 is < 100 nM.

Compound `O=C1c2c(cccc2-c2ccc3c(c2)CCO3)CN1CCc1ccc2ccccc2n1` [Example 56, 7-(2,3-Dihydro-benzofuran-5-yl)-2-(2-quinolin-2-yl-ethyl)-2,3-dihydro-isoindol-1-one] showed an IC50 of 200 to 500 nM.

Turning to `O=C1c2c(OCCF)ccc(-c3ccncc3)c2C(=O)N1CCc1ccc2ccccc2n1` [compound 532, 4-(2-Fluoro-ethoxy)-7-pyridin-4-yl-2-(2-quinolin-2-yl-ethyl)-isoindole-1,3-dione], the IC50 is < 100 nM.

On to `Cc1cscc1-c1cccc2c1C(=O)N(CCc1ccc3ccccc3n1)C2` [Example 73, 7-(4-Methyl-thiophen-3-yl)-2-(2-quinolin-2-yl-ethyl)-2,3-dihydro-isoindol-1-one], for which the IC50 was in the range of 200 to 500 nM.

As for `O=C1c2c(cccc2N2CCOCC2)CN1CCc1cc(Cl)c2ccccc2n1` [Example 117, 2-[2-(4-Chloro-quinolin-2-yl)-ethyl]-7-morpholin-4-yl-2,3-dihydro-isoindol-1-one trifluoroacetate], the IC50 was in the range of 100 to 200 nM.

`O=C1c2c(-c3ccncc3)ccnc2CN1CCc1cn2ccsc2n1` [compound 423, 6-(2-Imidazo[2,1-b]thiazol-6-ylethyl)-4-(4-pyridyl)-7H-pyrrolo[3,4-b]pyridin-5-one trifluoroacetate]: the IC50 was < 100 nM.

The compound `COc1cc(-c2cccc3c2CN(CCc2ccc4ccccc4n2)C3=O)ccn1` [Example 344, 4-(2-Methoxy-pyridin-4-yl)-2-(2-quinolin-2-yl-ethyl)-2,3-dihydro-isoindol-1-one] yielded an IC50 of 100 to 200 nM.

As for `O=C1c2c(N3CCC(F)(F)CC3)ccnc2CN1CCc1ccc2ccccc2n1` [Example 258, 4-(4,4-Difluoro-piperidin-1-yl)-6-(2-quinolin-2-yl-ethyl)-6,7-dihydro-pyrrolo[3,4-b]pyridin-5-one], the IC50 is < 100 nM.

Regarding `COc1cnccc1-c1ccnc2c1C(=O)N(CCc1ccc3ccccc3n1)C2` [compound 389, 4-(3-Methoxy-4-pyridyl)-6-[2-(2-quinolyl)ethyl]-7H-pyrrolo[3,4-b]pyridin-5-one], the IC50 was in the range of 100 to 200 nM.

On to `Cn1c(CCN2Cc3cccc(N4CCOCC4)c3C2=O)nc2c(F)cccc21` [Example 307, 2-[2-(4-Fluoro-1-methyl-1H-benzoimidazol-2-yl)-ethyl]-7-morpholin-4-yl-2,3-dihydro-isoindol-1-one trifluoroacetate], for which the IC50 was 200 to 500 nM.

Take `O=C1c2cccc(N3CCNCC3)c2CN1CCc1ccc2ccccc2n1` [Example 141, 4-piperazin-1-yl-2-(2-quinolin-2-yl-ethyl)-2,3-dihydro-isoindol-1-one]: the IC50 was 200 to 500 nM.

`O=C1c2cccc(-c3ccoc3)c2CN1CCc1ccc2ccccc2n1` [Example 346, 4-Furan-3-yl-2-(2-quinolin-2-yl-ethyl)-2,3-dihydro-isoindol-1-one]: the IC50 is < 100 nM.

For the compound `O=C1c2c(cccc2-c2ccncc2)CN1CC(F)(F)c1ccc2ccccc2n1` [Example 13, 2-(2,2-Difluoro-2-quinolin-2-yl-ethyl)-7-pyridin-4-yl-2,3-dihydro-isoindol-1-one], the IC50 is < 100 nM.

As to `O=C1c2c(cccc2-c2cnc[nH]2)CN1CCc1ccc2ccccc2n1` [Example 84, 7-(3H-Imidazol-4-yl)-2-(2-quinolin-2-yl-ethyl)-2,3-dihydro-isoindol-1-one], the IC50 was < 100 nM.

`O=C1c2cccc(-c3ccc(F)cc3)c2CN1CCc1ccc2ccccc2n1` [Example 212, 4-(4-Fluoro-phenyl)-2-(2-quinolin-2-yl-ethyl)-2,3-dihydro-isoindol-1-one trifluoroacetate] had an IC50 of 200 to 500 nM.

As to `O=C1c2c(cccc2-c2cccnc2)CN1CCc1ccc2ccccc2n1` [Example 30, 7-Pyridin-3-yl-2-(2-quinolin-2-yl-ethyl)-2,3-dihydro-isoindol-1-one], the IC50 was < 100 nM.

Take `O=C1c2c(cccc2-c2ccncc2)CN1CCc1nc2ccccc2n1CCN1CCOCC1` [Example 292, 2-{2-[1-(2-Morpholin-4-yl-ethyl)-1H-benzoimidazol-2-yl]-ethyl}-7-pyridin-4-yl-2,3-dihydro-isoindol-1-one trifluoroacetate]: the IC50 was < 100 nM.

The compound `O=C1c2c(cccc2-c2ccn[nH]2)CN1CCc1ccc2sccc2n1` [Example 560, 7-(1H-Pyrazol-5-yl)-2-(2-thieno[3,2-b]pyridin-5-ylethyl)isoindolin-1-one] gave an IC50 of 100 to 200 nM.

Consider `CN(C)CCn1c(CCN2Cc3cccc(-c4ccncc4)c3C2=O)nc2ccccc21` [Example 293, 2-{2-[1-(2-Dimethylamino-ethyl)-1H-benzoimidazol-2-yl]-ethyl}-7-pyridin-4-yl-2,3-dihydro-isoindol-1-one trifluoroacetate], for which the IC50 was < 100 nM.

Regarding `Cc1ccc2c(c1)nc(CCN1Cc3cccc(-c4ccncc4)c3C1=O)n2C` [Example 301, 2-[2-(1,5-Dimethyl-1H-benzoimidazol-2-yl)-ethyl]-7-pyridin-4-yl-2,3-dihydro-isoindol-1-one trifluoroacetate], the IC50 was < 100 nM.

Regarding `CC(C)n1c(CCN2Cc3cccc(N4CCOCC4)c3C2=O)nc2ccccc21` [Example 304, 2-[2-(1-Isopropyl-1H-benzoimidazol-2-yl)-ethyl]-7-morpholin-4-yl-2,3-dihydro-isoindol-1-one trifluoroacetate], the IC50 was 100 to 200 nM.

On to `O=C1c2c(-c3cn[nH]c3)ccc(F)c2CN1CCc1ccc2ccccc2n1` [compound 442, 4-Fluoro-7-(1H-pyrazol-4-yl)-2-[2-(2-quinolyl)ethyl]isoindolin-1-one trifluoroacetate], for which the IC50 is < 100 nM.

For the compound `O=C1c2c(-c3ccncc3)ccnc2CN1CCc1cc(-c2ccncc2)c2ccccc2n1` [compound 484, 4-(4-Pyridyl)-6-[2-[4-(4-pyridyl)-2-quinolyl]ethyl]-7H-pyrrolo[3,4-b]pyridin-5-one], the IC50 was < 100 nM.

Turning to `O=C1c2c(-c3ccoc3)ccnc2CN1CCc1ccc2ccccc2n1` [Example 331, 4-Furan-3-yl-6-(2-quinolin-2-yl-ethyl)-6,7-dihydro-pyrrolo[3,4-b]pyridin-5-one], the IC50 was < 100 nM.

Consider `O=C1c2c(cccc2-c2ccc3cn[nH]c3c2)CN1CCc1cn2ccccc2n1` [Example 243, 2-(2-Imidazo[1,2-a]pyridin-2-yl-ethyl)-7-(1H-indazol-6-yl)-2,3-dihydro-isoindol-1-one], for which the IC50 was < 100 nM.

For the compound `O=C1c2c(NC3COC3)ccc(F)c2CN1CCc1ccc2ccccc2n1` [compound 437, 4-Fluoro-7-(oxetan-3-ylamino)-2-[2-(2-quinolyl)ethyl]isoindolin-1-one], the IC50 was < 100 nM.

For `O=C1c2c(-c3cc[nH]n3)ccnc2CN1CCc1ccc2ccccc2n1` [Example 323, 4-(1H-Pyrazol-3-yl)-6-(2-quinolin-2-yl-ethyl)-6,7-dihydro-pyrrolo[3,4-b]pyridin-5-one], the IC50 was < 100 nM.

Tested on in another series: not listed separately
In words: Determination of the microsomal half-life, human liver microsomes. The settings on record: human, liver microsomes, pH 7.4.
As a reminder, the microsomal CLint is a measure of how fast metabolising enzymes remove a compound, apart from limits set by blood flow. A higher microsomal CLint goes with faster metabolism. Take `O=C1c2c(cccc2-c2ccncc2)CN1CCc1cccc(-c2ncccn2)c1` [Example 121, 7-(Pyridin-4-yl)-2-(3-(pyrimidin-2-yl)phenethyl)isoindolin-1-one]: the microsomal CLint at 0.5 μM fell in the range of 100 to 220 µL/min/mg.

Tested on in the next series: not listed separately
In words: Determination of the microsomal half-life, rat liver microsomes. The settings on record: rat, liver microsomes, pH 7.4.
Consider `O=C1c2c(N3CCOCC3)ccnc2CN1CCc1cc2ccccc2o1` [compound 397, 6-[2-(Benzofuran-2-yl)ethyl]-4-morpholino-7H-pyrrolo[3,4-b]pyridin-5-one], for which the microsomal CLint at 0.5 μM was in the range of 100 to 220 µL/min/mg.
